According to US8759326B2, “Drug combinations containing PDE4 inhibitors and NSAIDs” (Boehringer Ingelheim International GmbH, priority 2009, dated 2014):

Key:
male Wistar rats [1] = assay: Experiment 4: diarrhoea and mesentery histopathology in rats, roflumilast with or without SC-560 or lumiracoxib; format: in vivo, rat; conditions: p.o. four days, roflumilast 10 mg/kg at 1300, SC-560 or lumiracoxib 2 mg/kg at 0800 and 1700, 95 hours after t0; for Diarrhoea: animals affected out of animals; for Mesentery: Proliferation of fibroblasts / Mesentery: multifocal perivascular mononuclear infiltration (=inflammation parameter): animals affected out of animals examined
Method: (§1) For pharmacokinetic analysis (determining the plasma levels of the substances) on day 4 one rat from each group was used; these rats were no longer available for other parameters under investigation.
(§2) At the end of the experiment (95 hours after t0 (=the time of the first administration on day 1, 0800 hours)) the rats from the individual groups were examined phenotypically and histopathologically for the presence of multifocal perivascular mononuclear infiltration (=inflammation parameter) in the mesentery and for the proliferation of fibroblasts in the mesentery. In addition, the occurrence of diarrhoea in the rats from the different groups was noted.

male Wistar rats [2] = assay: Experiment 3: weight loss, leukocytosis and neutrophilia in rats, roflumilast with or without SC-560 or lumiracoxib; format: in vivo, rat
male Wistar rats [3] = assay: Experiment 1: weight loss, leukocytosis and neutrophilia in rats, roflumilast with or without diclofenac
Method: For pharmacokinetic analysis (determining the plasma levels of the substances) on day 4 one rate from each group was used; these rats were no longer available for other parameters under investigation.
The average±standard deviation of the body weights at time t0 was 355±17 g.
At the end of the experiment (95 hours after t0 (=the time of the first administration on day 1, 0800)) the proportion of white blood cells (×1000 cells/μl blood, FIG. 1B, left-hand Figure) and the proportion of neutrophils (in % of white blood cells, FIG. 1B, right-hand Figure) were determined from the blood of 4 or 5 of the rats from the individual groups.

male Wistar rats [4] = assay: Experiment 2: diarrhoea and mesentery histopathology in rats, roflumilast with or without diclofenac; conditions: roflumilast 10 mg/kg p.o. daily; six rats per group; between day 4 and day 5
Method: as §1, §2

Row | SMILES | Diarrhoea (male Wistar rats [1]) | protective effect on roflumilast-mediated weight loss, leukocytosis and neutrophilia (male Wistar rats [2]; SC-560 2 mg/kg p.o. at 0800 and 1700 co-administered with roflumilast 10 mg/kg, four days) | parameters measured after the administration of the NSAID alone, compared with control (male Wistar rats [3]; diclofenac 1 mg/kg p.o. at 0800 and 1700, four days) | Mesentery: Proliferation of fibroblasts (male Wistar rats [1]) | Mesentery: multifocal perivascular mononuclear infiltration (=inflammation parameter) (male Wistar rats [1]) | parameters measured after the administration of the NSAID alone, compared with control (male Wistar rats [2]; 2 mg/kg p.o. at 0800 and 1700, four days) | PDE4 inhibitor-mediated side effects such as weight loss, leukocytosis, neutrophilia and diarrhoea (male Wistar rats [2]; FIG. 2A, 2B, p.o. four days, roflumilast 10 mg/kg, lumiracoxib 2 mg/kg twice daily) | death of rats (male Wistar rats [3]; roflumilast 10 mg/kg p.o. daily, six rats per group, between day 4 and day 5) | death of rats (male Wistar rats [4])
1 | COc1ccc(-n2nc(C(F)(F)F)cc2-c2ccc(Cl)cc2)cc1 [SC-560] | 0/6 | absolutely no protective effect |  |  |  |  |  |  | 
2 | O=C(O)Cc1ccccc1Nc1c(Cl)cccc1Cl [diclofenac] |  |  | very similar to the control groups |  |  |  |  |  | 
3 | Cc1ccc(Nc2c(F)cccc2Cl)c(CC(=O)O)c1 [lumiracoxib] | 0/6 |  |  | 0/5 | 0/5 | very similar to the control groups |  |  | 
4 | O=C(Nc1c(Cl)cncc1Cl)c1ccc(OC(F)F)c(OCC2CC2)c1 [roflumilast] | 2/6 |  |  | 5/5 | 5/5 |  | observed | one rat | one rat
